Test systems include HL-60; SF-539; MDA-MB-231; DU-145; Hs-578T; U-251; HCC 2998; HCT-15; SK-OV-3; NCI-H226; CAKI-1; SR; CCRF-CEM; SW-620; UO-31; LOX IMVI; T47D; SK-MEL-5; RXF 393; A498.
What all share (assay): inhibition of tumour cell growth, NCI panel, 48 h

Counter-ions that a name gives are not always drawn.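 Cells were grown in 96-well plates and exposed to each compound for 48 hours at five concentrations; endpoints were interpolated linearly between bracketing concentrations, or set to the highest concentration if not reached. Here, GI50 denotes the concentration required for 50% inhibition of growth.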 The source made the active and inactive calls. Cut-off read from the data, not from the text of the source: active = GI50 up to about 1.1 µM and inactive = higher. Bounds are passed on as bounds.

As to `CCOC(=O)N1CCN(c2ccc3ccc(N)nc3n2)CC1`, the GI50 with HL-60, in the test on SF-539, in the test on MDA-MB-231, in the test with DU-145, in the test with Hs-578T and with U-251 was > 100 µM (inactive) throughout. The GI50 was > 100 µM (inactive) in the test on HCC 2998; above 100 µM in the test with HCT-15; > 100 µM (inactive) in the test on SK-OV-3; > 100 µM (inactive) in the test on NCI-H226; > 100 µM (inactive) with CAKI-1; > 100 µM (inactive) with SR. In addition, the GI50 in the test on CCRF-CEM was 50.1 µM (inactive); with SW-620, > 100 µM (inactive); in the test with UO-31, > 100 µM (inactive); in the test with LOX IMVI, > 100 µM (inactive).
Consider `[B].c1ccc([Si](OCCN2CC2)(c2ccccc2)c2ccccc2)cc1`, for which the GI50 with HL-60 was 27.1 µM (inactive); with SF-539, 14 µM (inactive); with MDA-MB-231, 14.9 µM (inactive); with T47D, 15.6 µM (inactive); in the test on DU-145, 13.7 µM (inactive); in the test with Hs-578T, 12.4 µM (inactive). Moreover, the GI50 in the test on SK-MEL-5 is 15.8 µM (inactive); in the test with U-251, 14 µM (inactive); in the test on HCC 2998, 13.6 µM (inactive); in the test on HCT-15, 7.66 µM; with SK-OV-3 it was 14.4 µM (inactive); in the test with NCI-H226, 16 µM (inactive). Further, the GI50 was 16.3 µM (inactive) with CAKI-1; 18.7 µM (inactive) with CCRF-CEM; 14.7 µM (inactive) in the test with SW-620; 4.46 µM (inactive) in the test with RXF 393; 15.2 µM (inactive) with UO-31; 14.5 µM (inactive) with LOX IMVI.
Turning to `NCCc1cc(O)c(O)cc1O` [OXIDOPAMINE HYDROCHLORIDE], the GI50 was 19.2 µM (inactive) with SF-539; 19.5 µM (inactive) with MDA-MB-231; 23.1 µM (inactive) with T47D; 17.7 µM (inactive) in the test on DU-145; 18.5 µM (inactive) in the test with SK-MEL-5; 56.2 µM (inactive) with HCC 2998. For the same compound, the GI50 with HCT-15 is 17.1 µM; with SK-OV-3, > 100 µM (inactive); in the test on CAKI-1, 18.6 µM (inactive); with SR it was 0.619 µM (active); in the test with CCRF-CEM, 3.97 µM (inactive); in the test on SW-620, 21 µM (inactive). The GI50 in the test on RXF 393 was 51.4 µM (inactive); with UO-31, 25.2 µM (inactive); in the test on A498, > 100 µM (inactive).
For the compound `CCOC(=O)CSc1nc(-c2ccc(Cl)cc2)c(C#N)c(=O)[nH]1`, the GI50 was 22 µM (inactive) in the test on HL-60; > 100 µM (inactive) in the test with SF-539; 50.6 µM (inactive) in the test on MDA-MB-231; 85.1 µM (inactive) in the test on T47D; > 100 µM (inactive) in the test with DU-145; > 100 µM (inactive) with Hs-578T. Also, the GI50 with SK-MEL-5 was > 100 µM (inactive); in the test with U-251, > 100 µM (inactive); in the test with HCC 2998, 76 µM (inactive); with HCT-15, above 100 µM; with SK-OV-3 it was > 100 µM (inactive); in the test on NCI-H226, 82.4 µM (inactive). Besides, the GI50 in the test on CAKI-1 is > 100 µM (inactive); with CCRF-CEM, 41.1 µM (inactive); with SW-620, > 100 µM (inactive); with RXF 393 it was > 100 µM (inactive); with UO-31, 77.3 µM (inactive); with A498 it was > 100 µM (inactive).
`CCCCCCCCCCCCCCCCCCNc1ccn(C2OC(COP(=O)(O)OCC3CCC(n4cnc5c(=O)[nH]cnc54)O3)C(O)C2O)c(=O)n1` (stereo not drawn): the GI50 in the test with SF-539 is 83.8 µM (inactive); in the test on T47D, 95.5 µM (inactive); with DU-145, > 100 µM (inactive); with Hs-578T it was > 100 µM (inactive); in the test on SK-MEL-5, > 100 µM (inactive); in the test on U-251, > 100 µM (inactive). Also, the GI50 was 97.5 µM in the test with HCT-15; > 100 µM (inactive) in the test on SK-OV-3; > 100 µM (inactive) with NCI-H226; > 100 µM (inactive) in the test on CAKI-1; 29.3 µM (inactive) in the test with CCRF-CEM; > 100 µM (inactive) in the test with SW-620. Besides, the GI50 in the test with RXF 393 is 19.9 µM (inactive); with UO-31 it was > 100 µM (inactive); in the test with LOX IMVI it was > 100 µM (inactive); in the test on A498 it was > 100 µM (inactive).
Regarding `Cc1ccc(Nc2cn(COCc3ccccc3)c(=O)[nH]c2=O)cc1`, the GI50 in the test on HL-60 is > 100 µM (inactive); in the test with DU-145 it was > 100 µM (inactive); with Hs-578T it was 24.9 µM (inactive); in the test with SK-MEL-5, > 100 µM (inactive); in the test on U-251, > 100 µM (inactive); in the test with HCC 2998 it was > 100 µM (inactive). Besides, the GI50 in the test with HCT-15 was above 100 µM; in the test with NCI-H226, > 100 µM (inactive); in the test with CAKI-1, 65.5 µM (inactive); with SR, > 100 µM (inactive); in the test on CCRF-CEM, > 100 µM (inactive); with SW-620, > 100 µM (inactive). Also, the GI50 in the test with RXF 393, with UO-31, in the test with LOX IMVI and with A498 was > 100 µM (inactive) each time.
With `Nc1nc(Cl)c2nnn(CC3CCC(CO)C3)c2n1` (stereo not drawn), the GI50 in the test with SF-539, in the test with MDA-MB-231, with T47D, in the test with DU-145, in the test with Hs-578T and with SK-MEL-5 was > 100 µM (inactive) in each case. Moreover, the GI50 in the test with U-251 is > 100 µM (inactive); in the test on HCC 2998 it was > 100 µM (inactive); with HCT-15 it was above 100 µM; with SK-OV-3 it was > 100 µM (inactive); in the test on NCI-H226, > 100 µM (inactive); with CAKI-1, > 100 µM (inactive). Moreover, the GI50 with CCRF-CEM, in the test with SW-620, in the test on RXF 393, in the test with UO-31, with LOX IMVI and in the test on A498 was > 100 µM (inactive) each time.
In the case of `CC(=O)[C@@H]1C/C(=C\OCc2ccccc2)O[C@H]1C`, the GI50 with SF-539, in the test with MDA-MB-231, with T47D, with DU-145, in the test on SK-MEL-5 and in the test on U-251 was > 100 µM (inactive) each time. Further, the GI50 in the test on HCT-15 is above 100 µM; with SK-OV-3, > 100 µM (inactive); with NCI-H226, > 100 µM (inactive); with CAKI-1, > 100 µM (inactive); in the test with SW-620, > 100 µM (inactive); in the test on RXF 393, > 100 µM (inactive). Besides, the GI50 with UO-31 was > 100 µM (inactive); with LOX IMVI, 61.2 µM (inactive); in the test with A498, > 100 µM (inactive).
Take `O=C1CC(Cl)c2c1csc2Br` (stereo not drawn): the GI50 with HL-60 was 21.4 µM (inactive); in the test on SF-539, 3 µM (inactive); in the test on T47D, 23.1 µM (inactive); in the test on DU-145, 29.4 µM (inactive); with Hs-578T, 21.6 µM (inactive); with SK-MEL-5, 16.9 µM (inactive). Further, the GI50 in the test with U-251 is 16.7 µM (inactive); with HCC 2998, 17.4 µM (inactive); in the test with HCT-15, 12.9 µM; with SK-OV-3, 18.6 µM (inactive); in the test on NCI-H226 it was 29.9 µM (inactive); in the test on CAKI-1, 5.61 µM (inactive). Further, the GI50 in the test with SR is 4.56 µM (inactive); in the test on CCRF-CEM, 2.65 µM (inactive); with SW-620, 3.48 µM (inactive); with RXF 393 it was 19 µM (inactive); in the test on UO-31 it was 8.93 µM (inactive); with LOX IMVI, 14.1 µM (inactive). Besides, in the test with A498, the GI50 is 24.1 µM (inactive).
As for `Cc1nn(-c2ccccc2)c2nc3c(c(C)nn3-c3ccccc3)c(-c3ccccc3Br)c12`, the GI50 in the test on SF-539, in the test with MDA-MB-231, in the test on T47D, with DU-145, in the test with SK-MEL-5 and in the test with U-251 was > 100 µM (inactive) throughout. In addition, the GI50 in the test on HCC 2998 was > 100 µM (inactive); in the test with HCT-15, above 100 µM; in the test on SK-OV-3 it was > 100 µM (inactive); in the test on NCI-H226 it was > 100 µM (inactive); in the test with CAKI-1 it was > 100 µM (inactive); in the test on SR, > 100 µM (inactive). Also, the GI50 with CCRF-CEM is > 100 µM (inactive); in the test with SW-620, > 100 µM (inactive); in the test on RXF 393, > 100 µM (inactive); in the test with UO-31 it was 59.4 µM (inactive); with LOX IMVI it was > 100 µM (inactive); with A498, > 100 µM (inactive).
On to `Cc1ccc(Cl)c2c(=O)c3ccc(N)cc3sc12`, for which the GI50 is 2.99 µM (inactive) in the test on HL-60; 16 µM (inactive) in the test with SF-539; 22.2 µM (inactive) in the test on MDA-MB-231; 18.9 µM (inactive) with T47D; 26.1 µM (inactive) with DU-145; 10.4 µM (inactive) with Hs-578T. Moreover, the GI50 is 17.5 µM (inactive) with SK-MEL-5; 21.1 µM with HCT-15; 17.3 µM (inactive) in the test with NCI-H226; 24.9 µM (inactive) in the test on CAKI-1; 14.7 µM (inactive) in the test with CCRF-CEM; 22.1 µM (inactive) with RXF 393. For the same compound, the values for the GI50 in the test with UO-31 and in the test with A498 were 13.9 µM (inactive) and 17 µM (inactive), respectively.
On to `Cc1cc2nc3c(C#N)c(-c4ccccc4)cc(Nc4cccc(C(F)(F)F)c4)n3c2cc1C`, for which the GI50 in the test on SF-539 was 3.78 µM (inactive); with MDA-MB-231, 3.43 µM (inactive); in the test with T47D, 4.16 µM (inactive); in the test with SK-MEL-5, 3.21 µM (inactive); in the test with HCC 2998, 3.84 µM (inactive); in the test on HCT-15 it was 4.73 µM. The GI50 is 6.1 µM (inactive) with SK-OV-3; 3.86 µM (inactive) in the test on NCI-H226; 4.85 µM (inactive) in the test on CAKI-1; 3.6 µM (inactive) with CCRF-CEM; 3.74 µM (inactive) with SW-620; 5.48 µM (inactive) with RXF 393. The GI50 was 5.08 µM (inactive) in the test with UO-31, 9.12 µM (inactive) in the test on LOX IMVI and 6.05 µM (inactive) in the test on A498.
